Activity calls are given as the source filed them. No cut-off for these calls is given here.
Experiments:
[1] = AUC(0 to t) in Beagle dog at 20 mg/kg, po measured upto 24 hrs by LC-MS/MS analysis; type: ADME, organism-based, Canis lupus familiaris; design: time < 24 hrs, dose 20 mg/kg, route po; conditions: in vivo
[2] = Half life in Sprague-Dawley rat at 20 mg/kg, po measured upto 24 hrs by LC-MS/MS analysis; type: ADME, organism-based; conditions: in vivo
[3] = AUC(0 to infinity) in BALB/c mouse at 25 mg/kg, po measured upto 24 hrs by LC-MS/MS analysis; type: ADME, organism-based; design: time < 24 hrs, dose 25 mg/kg, route po; conditions: in vivo
U-87 MG [4] = experiment: Antitumor activity against human U-87MG cells xenografted in BALB/c mouse assessed as tumor growth inhibition at 25 mg/kg, po administered once daily for 5 days and measured upto 32 days in presence of 30 mg/kg TMZ by MRI scanner; type: functional, U-87MG ATCC; conditions: 768 h, time <= 32 day, read-out: TGI
U-251 [5] = experiment: Cytotoxicity against human U251 cells assessed as reduction in cell viability at 5 to 10 uM incubated for 72 hrs in presence of TMZ by MTT assay; type: functional, cell-based; conditions: dose 5-10 µM
U-87 MG [6] = experiment: Cytotoxicity against human U87MG cells assessed as reduction in cell viability at 5 to 10 uM incubated for 72 hrs in presence of TMZ by MTT assay; type: functional, cell-based; conditions: U-87MG ATCC, dose 5-10 µM
U-251 [7] = experiment: Inhibition of PARP1/2-mediated DNA repair in human U-251 cells assessed as reduction in PAR formation at 1 to 10 uM after 24 hrs in absence of TMZ by Western blot analysis; type: cell-based; conditions: dose 1-10 µM
[8] = MRT(0 to t) in Sprague-Dawley rat at 20 mg/kg, po measured upto 24 hrs by LC-MS/MS analysis; type: ADME, organism-based; conditions: in vivo
Mus musculus [9] = experiment: Toxicity in BALB/c mouse xenografted with human U-87MG cells assessed as effect on body weight at 25 mg/kg, po administered once daily for 5 days and measured on day 8 in presence of 30 mg/kg TMZ (reference value: 18.8 +/- 0.7 g); type: organism-based; conditions: in vivo, 192 h, time 8 day
T98G [10] = experiment: Inhibition of PARP1/2-mediated DNA repair in human T98G cells assessed as increase in […] expression at 1 to 10 uM after 24 hrs in absence of TMZ by Western blot analysis; type: cell-based; conditions: dose 1-10 µM
[11] = MRT(0 to infinity) in Beagle dog at 0.4 mg/kg, iv measured upto 24 hrs by LC-MS/MS analysis; type: ADME, organism-based, Canis lupus familiaris; conditions: in vivo
[12] = AUC(0 to t) in Beagle dog at 0.4 mg/kg, iv measured upto 24 hrs by LC-MS/MS analysis; type: ADME, organism-based, Canis lupus familiaris; design: time < 24 hrs, dose 0.4 mg/kg, route iv; conditions: in vivo
[13] = Oral bioavailability in Beagle dog at 20 mg/kg measured upto 24 hrs by LC-MS/MS analysis; type: ADME, organism-based, Canis lupus familiaris; conditions: in vivo
U-87 MG [14] = experiment: Antitumor activity against human U-87MG cells xenografted in BALB/c mouse assessed as reduction in tumor volume at 50 mg/kg, po administered once daily for 5 days and measured on day 8 in presence of 30 mg/kg TMZ by MRI scanner (reference value: 202 +/- 120.4 mm3); type: functional, U-87MG ATCC; conditions: time 8 day
T98G [15] = experiment: Inhibition of PARP1/2-mediated DNA repair in human T98G cells assessed as increase in […] expression at 1 to 10 uM after 24 hrs in presence of TMZ by Western blot analysis; type: cell-based; conditions: dose 1-10 µM
[16] = MRT(0 to infinity) in Beagle dog at 20 mg/kg, po measured upto 24 hrs by LC-MS/MS analysis; type: ADME, organism-based, Canis lupus familiaris; conditions: in vivo
U-251 [17] = experiment: Inhibition of PARP1/2-mediated DNA repair in human U-251 cells assessed as increase in […] expression at 1 to 10 uM after 24 hrs in absence of TMZ by Western blot analysis; type: cell-based; conditions: dose 1-10 µM
U-87 MG [18] = experiment: Antitumor activity against human U-87MG cells xenografted in BALB/c mouse assessed as reduction in tumor volume at 50 mg/kg, po administered once daily for 5 days and measured on day 32 in presence of 30 mg/kg TMZ by MRI scanner; type: functional, U-87MG ATCC; conditions: time 32 day
MX1 = experiment: Antitumor activity against human MX1 cells xenografted in athymic nu/nu mouse assessed as tumor growth inhibition at 12.5 mg/kg, po administered once daily for 5 days and measured on day 17 in presence of 50 mg/kg TMZ; type: functional; conditions: MX1, 408 h, time 17 day, read-out: TGI
T98G [19] = experiment: Cytotoxicity against human T98G cells assessed as reduction in cell viability at 5 to 10 uM incubated for 72 hrs in presence of TMZ by MTT assay; type: functional, cell-based; conditions: dose 5-10 µM
[20] = AUC(0 to infinity) in Sprague-Dawley rat at 20 mg/kg, po measured upto 24 hrs by LC-MS/MS analysis; type: ADME, organism-based; design: time < 24 hrs, dose 20 mg/kg, route po; conditions: in vivo
Daoy = experiment: Cytotoxicity against human Daoy cells assessed as reduction in cell viability at 5 to 10 uM incubated for 72 hrs in presence of TMZ by MTT assay; type: functional, cell-based; conditions: dose 5-10 µM
[21] = Half life in BALB/c mouse at 25 mg/kg, po measured upto 24 hrs by LC-MS/MS analysis; type: ADME, organism-based; conditions: in vivo
MDA-MB-436 = experiment: Antitumor activity against human MDA-MB-436 cells xenografted in po dosed athymic nu/nu mouse assessed as tumor growth inhibition administered once daily for 17 days; type: functional, organism-based; conditions: time 17.0 day
[22] = MRT(0 to infinity) in BALB/c mouse at 25 mg/kg, po measured upto 24 hrs by LC-MS/MS analysis; type: ADME, organism-based; conditions: in vivo
[23] = Cmax in Beagle dog at 0.4 mg/kg, iv measured upto 24 hrs by LC-MS/MS analysis; type: ADME, organism-based, Canis lupus familiaris; design: time < 24 hrs, dose 0.4 mg/kg, route iv; conditions: in vivo
Mus musculus [24] = experiment: Toxicity in athymic nu/nu mouse xenografted with human MX1 cells assessed as reduction in body weight at 12.5 to 25 mg/kg, po administered once daily for 5 days and measured upto day 17; type: organism-based; conditions: in vivo, 408 h, dose 12.5-25 mg/kg, time < 17 day
[25] = AUC(0 to t) in BALB/c mouse at 25 mg/kg, po measured upto 24 hrs by LC-MS/MS analysis; type: ADME, organism-based; design: dose 25 mg/kg, time < 24 hrs, route po; conditions: in vivo
[26] = Cmax in Sprague-Dawley rat at 20 mg/kg, po measured upto 24 hrs by LC-MS/MS analysis; type: ADME, organism-based; design: time < 24 hrs, dose 20 mg/kg, route po; conditions: in vivo
[27] = AUC(0 to infinity) in Beagle dog at 0.4 mg/kg, iv measured upto 24 hrs by LC-MS/MS analysis; type: ADME, organism-based, Canis lupus familiaris; design: dose 0.4 mg/kg, time < 24 hrs, route iv; conditions: in vivo
U-87 MG [28] = experiment: Antitumor activity against human U-87MG cells xenografted in BALB/c mouse assessed as tumor growth inhibition at 50 mg/kg, po administered once daily for 5 days and measured upto 32 days in presence of 30 mg/kg TMZ by MRI scanner; type: functional, U-87MG ATCC; conditions: 768 h, time <= 32 day, read-out: TGI
[29] = target: Poly [ADP-ribose] polymerase 2 (Homo sapiens, UniProt Q9UGN5); experiment: Binding affinity to recombinant human PARP2 assessed as dissociation constant by SPR assay
[30] = Half life in Beagle dog at 20 mg/kg, po measured upto 24 hrs by LC-MS/MS analysis; type: ADME, organism-based, Canis lupus familiaris; conditions: in vivo
[31] = Half life in Beagle dog at 0.4 mg/kg, iv measured upto 24 hrs by LC-MS/MS analysis; type: ADME, organism-based, Canis lupus familiaris; conditions: in vivo
T98G [32] = experiment: Inhibition of PARP1/2-mediated DNA repair in human T98G cells assessed as reduction in PAR formation at 1 to 10 uM after 24 hrs in absence of TMZ by Western blot analysis; type: cell-based; conditions: dose 1-10 µM

Chain of Poly [ADP-ribose] polymerase 2 (Q9UGN5 whole entry): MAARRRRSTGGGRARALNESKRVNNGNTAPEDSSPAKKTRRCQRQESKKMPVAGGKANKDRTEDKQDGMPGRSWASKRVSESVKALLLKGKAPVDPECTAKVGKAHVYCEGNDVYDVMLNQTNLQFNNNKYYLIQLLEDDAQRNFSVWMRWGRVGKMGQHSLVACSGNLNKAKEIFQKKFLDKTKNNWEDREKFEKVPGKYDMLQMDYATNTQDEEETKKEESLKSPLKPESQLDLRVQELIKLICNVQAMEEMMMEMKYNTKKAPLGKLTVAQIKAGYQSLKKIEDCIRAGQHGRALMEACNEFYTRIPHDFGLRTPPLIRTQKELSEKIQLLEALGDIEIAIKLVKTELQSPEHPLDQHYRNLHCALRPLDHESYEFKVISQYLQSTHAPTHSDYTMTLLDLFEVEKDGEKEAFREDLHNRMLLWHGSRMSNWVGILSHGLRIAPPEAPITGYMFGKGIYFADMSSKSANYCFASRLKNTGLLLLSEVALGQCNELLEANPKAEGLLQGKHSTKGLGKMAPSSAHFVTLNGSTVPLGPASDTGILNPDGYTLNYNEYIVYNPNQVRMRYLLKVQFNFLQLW

CC[C@@H]1CN(C(=O)c2cc(Cn3c(=O)[nH]c(=O)c4ccccc43)ccc2F)CCN1CC
AUC(0-t) at 24 h [1]: 34200 ng·h/mL
half-life [2]: 0.8 h
AUC(0-inf) [3]: 593 ng·h/mL
inhibition in vivo at 25 mg/kg (U-87 MG [4]): 87.9%
Activity (U-251 [5]): Active
Activity (U-87 MG [6]): Active
inhibition (U-251 [7]): Active
MRT last at 24 h [8]: 1.24 h
Activity (Mus musculus [9]): 18.2 g
inhibition (T98G [10]): Active
MRT inf [11]: 1.43 h
AUC(0-t) at 24 h [12]: 1410 ng·h/mL
bioavailability [13]: 48.3%
Activity (U-87 MG [14]): 0 mm3
inhibition (T98G [15]): Active
MRT inf [16]: 4.85 h
inhibition (U-251 [17]): Active
Activity (U-87 MG [18]): 11.9 mm3
inhibition in vivo at 12.5 mg/kg (MX1): 71.5%
Activity (T98G [19]): Active
AUC(0-inf) [20]: 338 ng·h/mL
Activity (Daoy): Active
half-life [21]: 0.57 h
Activity (MDA-MB-436): Dose-dependent effect
MRT inf [22]: 1.05 h
Cmax [23]: 1250 ng/mL
Activity (Mus musculus [24]): Non-Toxic
AUC(0-t) at 24 h [25]: 555 ng·h/mL
Cmax [26]: 208 ng/mL
AUC(0-inf) [27]: 1430 ng·h/mL
inhibition in vivo at 50 mg/kg (U-87 MG [28]): 85.9%
Kd [29]: 51.5 nM
half-life [30]: 3.78 h
half-life [31]: 1.37 h
inhibition (T98G [32]): Active

Reference: ChEMBL document CHEMBL5053536, “Discovery of Quinazoline-2,4(1H,3H)-dione Derivatives Containing 3-Substituted Piperizines as Potent PARP-1/2 Inhibitors─Design, Synthesis, In Vivo Antitumor Activity, and X-ray Crystal Structure Analysis” (J Med Chem, 2021)
